Data taken from patent US10143202B2, “Synergistic blends of antimicrobials useful for controlling microorganisms in industrial processes” (Solenis Technologies, L.P., priority 2014, dated 2018).
Values after ≈ are worked out from the molar mass of the structure shown.

Assays:
Lactobacillus plantarum = assay: Minimal Inhibitory Concentration (MIC), two-fold dilution series in 96 well microplate, antimicrobial used alone; type: cell-based; settings: pH 5, 18-24 hours, complete inhibition of growth
Protocol: This is the lowest concentration of a substance or substances which can achieve complete inhibition of growth.
In order to determine the Minimal Inhibitory Concentration, a two-fold dilution series of the antimicrobial is constructed with the dilutions being made in growth media. The dilutions are made in a 96 well microplate such that each well has a final volume of 280 μl of media and antimicrobial. […] After the dilution series is constructed the wells receive an inoculum of microbe suspended in growth media such that the final concentration of microbes in the well is ˜5×10^5 cfu/ml. In these examples the test microbe used is Lactobacillus plantarum. The cultures are incubated at an appropriate temperature for 18-24 hours, and the wells scored as positive or negative for growth based on a visual examination for turbid wells.

Weisella confusa = settings: cited from earlier work
fermentation = settings: cited from earlier work

[O][Cl+][O-] [ClO2, chlorine dioxide]
ClO2 MIC (QA), Used Alone (Lactobacillus plantarum): 54 ppm

Virginiamycin
Concentration required to inhibit growth of Weisella confusa (Weisella confusa): over 25 mg/L
Concentration that will suppress fermentation (fermentation): over 2 mg/L

O=C(O)CC(O)(CC(=O)O)C(=O)O [Citric Acid, citric acid]
MIC (Lactobacillus plantarum; Lactiplantibacillus plantarum, read-out: Citric Acid MIC (QC), Used Alone): 6250 µg/mL (≈ 32.5 mM)
Citric Acid MIC (QC), Used Alone (Lactobacillus plantarum): 6250 ppm
